How the values were obtained:
[1] = target: Dipeptidyl Peptidase 8 (Homo sapiens, UniProt Q6V1X1); experiment: Recombinant dipeptidyl peptidases isolated enzyme assay, DPP8; assay type: biochemical; details: read-out: Dipeptidyl Peptidase 8 Enz (IC50: μM)
From the text: Table 3 Inhibitory effects of marrubiin on dipeptidyl peptidase. | column: Dipeptidyl Peptidase 8 Enz (IC50: μM)

[2] = system: PR3; experiment: Stability (protein level) of NSPs in U937 cells, Western blot, PR3; assay type: cell-based, human; details: U937, 10 μM
Procedure: The Western blot experiments in this study were performed as described below. Cells in the logarithmic growth phase were collected in appropriate numbers according to different experimental purposes. After being thoroughly washed with phosphate-buffered saline and centrifuged, the cell pellets were resuspended in phosphate-buffered saline to obtain single-cell suspensions. Cells were fully lysed using RIPA buffer (Beyotime, P0013B) supplemented with EDTA-free protease and phosphatase inhibitor (Abcam, ab201120). Total cellular protein solutions were obtained after centrifugation to remove cell debris. The isolated proteins were quantified using the BeyoBCA protein assay kit (Beyotime, P0399M) following the operational protocol. The quantified protein samples were thoroughly mixed with protein loading buffer, boiled on a dry bath for 5 min, and then cooled to room temperature for Western blot analysis. […] Finally, enhanced chemiluminescent horseradish peroxidase substrate (Tanon Science & Technology Co., Ltd., Shanghai, China, 180-506) was used to visualize protein bands on a ChemiDoc XRS system (Bio-Rad Laboratories, Inc., Hercules, CA, USA), and the protein bands were quantified using Image Lab analysis software (Version 6.1) (Bio-Rad). […]

Sequence of Dipeptidyl Peptidase 8 (Q6V1X1 whole entry, species assumed): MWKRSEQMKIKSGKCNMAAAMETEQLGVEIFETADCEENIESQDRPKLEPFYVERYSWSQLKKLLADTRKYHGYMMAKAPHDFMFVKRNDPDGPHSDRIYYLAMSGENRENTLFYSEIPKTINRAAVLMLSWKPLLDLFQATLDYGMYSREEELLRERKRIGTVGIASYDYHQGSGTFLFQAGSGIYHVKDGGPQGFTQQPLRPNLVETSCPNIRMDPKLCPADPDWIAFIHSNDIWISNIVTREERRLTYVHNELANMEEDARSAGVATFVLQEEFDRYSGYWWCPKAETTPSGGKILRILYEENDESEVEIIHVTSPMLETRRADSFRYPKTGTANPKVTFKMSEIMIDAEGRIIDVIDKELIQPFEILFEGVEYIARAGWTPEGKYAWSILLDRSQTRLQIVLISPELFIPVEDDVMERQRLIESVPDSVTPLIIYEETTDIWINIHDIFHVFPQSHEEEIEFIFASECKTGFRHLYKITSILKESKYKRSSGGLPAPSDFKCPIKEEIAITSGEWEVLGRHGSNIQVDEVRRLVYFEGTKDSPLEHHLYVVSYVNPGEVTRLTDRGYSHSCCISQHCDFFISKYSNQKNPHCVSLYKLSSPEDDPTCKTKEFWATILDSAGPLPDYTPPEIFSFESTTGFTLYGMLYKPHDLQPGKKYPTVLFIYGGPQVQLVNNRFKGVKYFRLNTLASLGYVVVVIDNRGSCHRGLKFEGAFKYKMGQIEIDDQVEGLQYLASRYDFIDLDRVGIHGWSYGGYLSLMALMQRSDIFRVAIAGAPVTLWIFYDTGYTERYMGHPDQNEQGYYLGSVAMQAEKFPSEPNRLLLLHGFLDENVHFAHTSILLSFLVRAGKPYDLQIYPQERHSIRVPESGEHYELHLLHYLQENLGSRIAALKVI

Question: Which IC50 [1] does the source give for `C[C@@H]1C[C@H]2OC(=O)[C@@]3(C)CCC[C@@](C)([C@@H]23)[C@@]1(O)CCc1ccoc1` [Marrubiin, marrubiin] here?
Answer: The IC50 was greater than 10 µM.

Question: What about the “PR3 protein level, % of original level” value ([2]; 96 h) of the same compound?
Answer: Its value is 28.2%.

Question: What about the “PR3 protein level, % of original level” value ([2]; 5 days) of the same compound?
Answer: The value was 15.8%.

— PMC12610274, “Identification of Marrubiin as a Cathepsin C Inhibitor for Treating Rheumatoid Arthritis” (Molecules, 2025)
